Reference: patent US8178506B2, “Oligomeric compounds and compositions for use in modulation of small non-coding RNAs” (Regulus Therapeutics Inc., priority 2003, dated 2012)
In the oligonucleotide strings, read from the 5' end, every base follows the letter of its sugar. An asterisk marks phosphorothioate; unmarked linkages are phosphodiester. Other units and linkages are bracketed, terminal groups are in braces. A string of capitals states the bases alone. e = 2'-O-(2-methoxyethyl) (MOE); [5mC] = 5-methylcytosine; d = 2'-deoxy (DNA)

Tests used:
Format in all cases: cell-based, human
HeLa cells = experiment: Cell cycle assay in HeLa cells; settings: HeLa cells; for % cells in cell cycle phase: G1 / % cells in cell cycle phase: G2/M / % cells in cell cycle phase: S / % cells in cell cycle phase: aneuploid / % cells in cell cycle phase: subG1: 48 hours after treatment, relative to untreated control (UTC=100)
T47D cells = experiment: Cell cycle assay in T47D cells; settings: 150 nM, 48 hours, relative to untreated control
Method: BJ cells were routinely cultured in MEM high glucose with 2 mM L-glutamine and Earle's BSS adjusted to contain 1.5 g/L sodium bicarbonate and supplemented with 10% fetal bovine serum, 0.1 mM non-essential amino acids and 1.0 mM sodium pyruvate (all media and supplements from Invitrogen Life Technologies, Carlsbad, Calif.). B16-F10 cells were routinely cultured in DMEM high glucose (Invitrogen Life Technologies, Carlsbad, Calif.) supplemented with 10% fetal bovine serum (Invitrogen Life Technologies, Carlsbad, Calif.). T47D cells were cultured in DMEM High glucose media (Invitrogen Life Technologies, Carlsbad, Calif.) supplemented with 10% fetal bovine serum. […] Cells were plated on collagen-coated 24-well plates (Falcon-Primaria #3047, BD Biosciences, Bedford, Mass.) at approximately 50,000 cells per well and allowed to attach to wells overnight.
(§1) In further studies, additional cell lines were treated with oligomeric compounds targeted against miRNAs to assess the effects of each oligomeric compound on cell cycling. BJ, B16, T47D, and HeLa cells were cultured and transfected as described above. […] T47Dp53 cells are T47D cells that have been transfected with and selected for maintenance of a plasmid that expresses a wildtype copy of the p53 gene (for example, pCMV-p53; Clontech, Palo Alto, Calif.), using standard laboratory procedures. BJ cells were treated with 200 nM of each oligomeric compound, and T47D, T47Dp53, HeLa, and B16 cells were treated with 150 nM of each oligomeric compound. The human foreskin fibroblast BJ cell line represents a non-cancer cell line, while HeLa, T47D, T47Dp53 cells and the mouse melanoma cell line B16-F10 represent cancerous cell lines. For comparison, oligomeric compounds ISIS 183891 (SEQ ID NO: 847) and ISIS 285717 ([…]; herein incorporated as SEQ ID NO: 857), both targeting the kinesin-like 1/Eg5 mRNA, involved in cell cycling, were used as positive controls. The random-mer ISIS 29848 was used as a negative control. Additionally, the oligomeric compounds ISIS Number 25690 ([…]; herein incorporated as SEQ ID NO: 858) and ISIS Number 25691 ([…]; herein incorporated as SEQ ID NO: 859), targeted to nucleotides 3051-3070 and 3085-3104, respectively, of the mRNA encoding the Drosha RNase III (GenBank Accession NM_013235.2, incorporated herein as SEQ ID NO: 860) were also tested. ISIS Number 25690 and ISIS Number 25691 are 5-10-52′-MOE gapmer compounds, 20 nucleotides in length, with phosphorothioate internucleoside linkages throughout the oligomeric compound. All cytidine residues are 5-methylcytidines. Transfections were performed using the methods described herein. Cells were prepared for flow cytometry 48-hours after oligonucleotide treatment. Results of these studies are shown in Table 35, where data are expressed as percentage of cells in each phase relative to the untreated control cells in that phase.

T47Dp53 cells = experiment: Cell cycle assay in T47Dp53 cells; settings: 150 nM, 48 hours, relative to untreated control
Method: as §1

A549 cells = experiment: Cell cycle assay in A549 cells; settings: A549 cells, 24 hours, relative to the untreated control cells in that phase
Method: In accordance with the present invention, certain oligomeric compounds targeting miRNAs were selected for dose response studies. Using the cell cycle assay described above, the cell cycle profiles of HeLa or A549 cells treated with varying concentrations of oligomeric compounds of the present invention were assessed.
Concomittent decreases in the percentage of cells in G1-phase of the cell cycle and increases in the percentage of hypodiploid (subG1) cells were also observed.
In a further study, A549 cells were treated with 25-, 50-, 100- or 150 nM of the oligomeric compounds ISIS Numbers 338637 (SEQ ID NO: 464) targeted against mir-96, and ISIS 338769 (SEQ ID NO: 596) targeted against mir-130b, ISIS 338836 (SEQ ID NO: 663) targeted against mir-23a, and ISIS 340350 (SEQ ID NO: 855) targeted against mir-95 (Mourelatos). Cells treated with increasing concentrations of oligomeric compounds were compared to untreated cells, to assess the dose-responsiveness of the observed delay or arrest. The random-mer ISIS 29848 was used as a negative control. Cells were prepared for flow cytometry 24-hours after oligonucleotide treatment. Results of these dose response studies are shown in Table 34, where data are expressed as percentage of cells in each phase relative to the untreated control cells in that phase.

[1] = tested on: preadipocytes / differentiating adipocytes; experiment: Adipocyte differentiation assay, markers taken together; settings: preadipocytes, 250 nM, day nine post-transfection, relative to ISIS-29848
Method: Oligomeric compounds of the invention are tested for their effects on preadipocyte differentiation. […] For the other adipocyte differentiation markers assayed, an oligomeric compound targeted to PPAR-γ, also known to inhibit adipocyte differentiation, may be used as a positive control.
Cells are transfected as described herein. […] Untreated control cells receive LIPOFECTIN™ only.
After the cells have reach confluence (approximately three days), they are exposed for an additional three days to differentiation medium (Zen-Bio, Inc., Research Triangle Park, N.C.) containing a PPAR-γ agonist, IBMX, dexamethasone, and insulin. Cells are then fed adipocyte medium (Zen-Bio, Inc.), which is replaced at 2 or 3 day intervals.
For assaying adipocyte differentiation, expression of the four hallmark genes, HSL, aP2, Glut4, and PPARγ, as well as triglyceride (TG) accumulation and leptin secretion were measured in adipocytes transfected with the uniform 2′-MOE phosphorothioate (PS) oligomeric compounds previously described. Cells are lysed on day nine post-transfection, in a guanadinium-containing buffer and total RNA is harvested. Real-time PCR is performed (Applied Biosystems, Prism 7700) on the total RNA using the following primer/probe sets for the adipocyte differentiation hallmark genes: (aP2): forward 5′-GGTGGTGGAATGCGTCATG-3′ (SEQ ID NO: 746), reverse 5′-[…]-3′ (SEQ ID NO: 747), probe 5′-FAM-[…]-TAMRA-3′ (SEQ ID NO: 748); (Glut4): forward 5′-GGCCTCCGCAGGTTCTG-3′ (SEQ ID NO: 749), reverse 5′-[…]-3′ (SEQ ID NO: 750), probe 5′-FAM-[…]-TAMRA-3′ (SEQ ID NO: 751); (HSL): forward 5′-ACCTGCGCACAATGACACA-3′ (SEQ ID NO: 752), reverse 5′-[…]-3′ (SEQ ID NO: 753), probe 5′-FAM-[…]-TAMRA-3′ (SEQ ID NO: 754); (PPAR-γ): forward 5′-[…]-3′ (SEQ ID NO: 755), reverse 5′-[…]-3′ (SEQ ID NO: 756), probe 5′-FAM-[…]-TAMRA-3′ (SEQ ID NO: 757). The amount of total RNA in each sample is determined using a Ribogreen Assay (Molecular Probes, Eugene, Oreg.), and expression levels of the adipocyte differentiation hallmark genes were normalized to total RNA. Leptin protein and triglyceride levels as well as mRNA levels for each of the four adipocyte differentiation hallmark genes are expressed relative to control levels (control=treatment with ISIS-29848 (SEQ ID NO: 737)).
In some embodiments, differentiating adipocytes were treated with uniform 2′-MOE phosphorothioate oligomeric compounds according to the methods described above, and the expression of the four hallmark genes, HSL, aP2, Glut4, and PPARγ, as well as triglyceride (TG) accumulation were measured. […] Undifferentiated adipocytes were also compared as a negative control. […] The effects of TNF-α, also known to inhibit adipocyte differentiation, were also measured.

[2] = 150 nM, 48 hours, relative to untreated control
[3] = 150 nM oligomeric compound, 24 hours, relative to untreated control (UTC = 100)

25690 (antisense eA*eT*e[5mC]*e[5mC]*e[5mC]*dT*dT*dT*d[5mC]*dT*dT*d[5mC]*d[5mC]*dG*d[5mC]*eA*eT*eG*eT*eG) [compound 25690]
% cells in cell cycle phase G1 (HeLa cells; [2]): 119% | % cells in cell cycle phase G2/M (HeLa cells; [2]): 87% | % cells in cell cycle phase S (HeLa cells; [2]): 89% | % cells in cell cycle phase aneuploid (HeLa cells; [2]): 140% | % cells in cell cycle phase subG1 (HeLa cells; [2]): 64% | % cells in cell cycle phase G1 (T47D cells): 97% | % cells in cell cycle phase G2/M (T47D cells): 113% | % cells in cell cycle phase S (T47D cells): 80% | % cells in cell cycle phase aneuploid (T47D cells): 140% | % cells in cell cycle phase subG1 (T47D cells): 97% | % cells in cell cycle phase G1 (T47Dp53 cells): 97% | % cells in cell cycle phase G2/M (T47Dp53 cells): 114% | % cells in cell cycle phase S (T47Dp53 cells): 108% | % cells in cell cycle phase aneuploid (T47Dp53 cells): 144% | % cells in cell cycle phase subG1 (T47Dp53 cells): 193%

328687 (eG*e[5mC]*eT*eT*e[5mC]*d[5mC]*d[5mC]*dA*dG*d[5mC]*dG*dG*d[5mC]*d[5mC]*dT*eA*eT*eA*eG*eT; antisense) [compound 328687]
% cells aneuploid (HeLa cells; [3]): 149% | % cells in cell cycle phase G1 (HeLa cells; [3]): 80% | % cells in cell cycle phase G2/M (HeLa cells; [3]): 131% | % cells in cell cycle phase S (HeLa cells; [3]): 98% | % cells in cell cycle phase subG1 (HeLa cells; [3]): 231% | % cells in cell cycle phase: G1 (HeLa cells; 150 nM oligomeric compound): 55% | % cells in cell cycle phase: G2/M (HeLa cells; 150 nM oligomeric compound): 131% | % cells in cell cycle phase: S (HeLa cells; 150 nM oligomeric compound): 174% | % cells in cell cycle phase: aneuploid (HeLa cells; 150 nM oligomeric compound): 171% | % cells in cell cycle phase: subG1 (HeLa cells; 150 nM oligomeric compound): 1119% | % cells in cell cycle phase G1 (T47D cells): 101% | % cells in cell cycle phase G2/M (T47D cells): 115% | % cells in cell cycle phase S (T47D cells): 92% | % cells in cell cycle phase aneuploid (T47D cells): 169% | % cells in cell cycle phase subG1 (T47D cells): 142%

338769 (antisense GCTTCCCAGCGGCCTATAGT; all 2'-MOE, all phosphorothioate, methylation of C not given here) [compound 338769]
% cells aneuploid (HeLa cells; [3]): 133% | % cells in cell cycle phase G1 (HeLa cells; [3]): 171% | % cells in cell cycle phase G2/M (HeLa cells; [3]): 103% | % cells in cell cycle phase S (HeLa cells; [3]): 61% | % cells in cell cycle phase subG1 (HeLa cells; [3]): 188% | % cells in cell cycle phase: G1 (HeLa cells; 150 nM oligomeric compound): 76% | % cells in cell cycle phase: G2/M (HeLa cells; 150 nM oligomeric compound): 149% | % cells in cell cycle phase: S (HeLa cells; 150 nM oligomeric compound): 116% | % cells in cell cycle phase: aneuploid (HeLa cells; 150 nM oligomeric compound): 194% | % cells in cell cycle phase: subG1 (HeLa cells; 150 nM oligomeric compound): 482% | % cells in cell cycle phase: G1 (A549 cells; 25 nM): 101% | % cells in cell cycle phase: G2/M (A549 cells; 25 nM): 114% | % cells in cell cycle phase: S (A549 cells; 25 nM): 94% | % cells in cell cycle phase: aneuploid (A549 cells; 25 nM): 101% | % cells in cell cycle phase: subG1 (A549 cells; 25 nM): 62% | % cells in cell cycle phase: G1 (A549 cells; 50 nM): 114% | % cells in cell cycle phase: G2/M (A549 cells; 50 nM): 122% | % cells in cell cycle phase: S (A549 cells; 50 nM): 81% | % cells in cell cycle phase: aneuploid (A549 cells; 50 nM): 132% | % cells in cell cycle phase: subG1 (A549 cells; 50 nM): 82% | % cells in cell cycle phase: G1 (A549 cells; 100 nM): 124% | % cells in cell cycle phase: G2/M (A549 cells; 100 nM): 113% | % cells in cell cycle phase: S (A549 cells; 100 nM): 75% | % cells in cell cycle phase: aneuploid (A549 cells; 100 nM): 157% | % cells in cell cycle phase: subG1 (A549 cells; 100 nM): 130% | % cells in cell cycle phase: G1 (A549 cells; 150 nM): 117% | % cells in cell cycle phase: G2/M (A549 cells; 150 nM): 145% | % cells in cell cycle phase: S (A549 cells; 150 nM): 71% | % cells in cell cycle phase: aneuploid (A549 cells; 150 nM): 184% | % cells in cell cycle phase: subG1 (A549 cells; 150 nM): 341% | % cells in cell cycle phase G1 (T47Dp53 cells): 103% | % cells in cell cycle phase G2/M (T47Dp53 cells): 123% | % cells in cell cycle phase S (T47Dp53 cells): 87% | % cells in cell cycle phase aneuploid (T47Dp53 cells): 87% | % cells in cell cycle phase subG1 (T47Dp53 cells): 116%

AACACTGATTTCAAATGGTGCTA (anti-miR; chemistry not fully specified) [ISIS 327876, uniform 2′-MOE PS; targets mir-29b-1]
expression levels of markers of adipocyte differentiation (TG, leptin, aP2, HSL, Glut4, PPARγ) [1]: reduce the expression of several hallmark genes of adipocyte differentiation
